The values below come from US11407781B2, “Equatorially modified polymer linked multimers of guanosine-3′, 5′-cyclic monophosphates” (GRAYBUG VISION, INC., priority 2016, dated 2022).

Marks after values point to notes of the source that are not given here.

Series [1] can be described thus: Determination of lipophilicity by RP-18 HPLC retention (log k′g). Format: physicochemical. The settings on record: RP-18 reversed phase HPLC, gradient elution, ion pair chromatography with triethylammonium cation. The text has this: Lipophilicity information is thus often only obtained by fragment analysis and corresponding calculations.
An established HPLC method, which is based on retention data on RP-18 reversed phase silica during gradient elution, was used for the determination of lipohilicity.
Instead of log P the method yields the descriptor log k′g, ranking analytes according to their lipophilicity on a logarithmic scale as well. Since charged molecules such as cyclic nucleotides have only hardly any retention on reversed phases, ion pair chromatography with the lipophilic triethylammonium cation is used.

Series [2] concerns photoreceptors of rd1 explants. As to the kind of experiment: Retinal explants: photoreceptor cell death by TUNEL stain. The settings on record: 50 μM. Format: cell-based, mouse. How it is done: Legend: The animals at the age of postnatal day 5 (PN5) were killed by decapitation and retinas were dissected out with retinal pigment epithelium attached as described previously.^9 The retinas were flattened out on the membranes of commercially available 6-well culture inserts, after which 1.5 ml of a custom made culturing medium was added to each well. These explants were then kept in culture for two days without any treatment after which the test analogue of the invention at the desired concentration was added at a medium change at PN7 (“7” in Figure). There was then a new medium change at PN9 (“9” in Figure), with same concentration of analogue of the invention, upon which the cultures were kept until PN11 (“11” in Figure). At this time point the experiment was finished by a fixation procedure. This paradigm is therefore called PN5+2+4. […]
Legend: Effects of selected analogues at given concentrations of the invention on the cell death of photoreceptors of rd1 explants. The cell death was assessed by so called TUNEL stain on fixated and sectioned material, after which the number of dying cells was counted and analysed, and compared with that from untreated rd1 explants. In order to allow more direct comparisons between the different analogues and concentrations a ratio of treated/untreated specimens was calculated. […]

The subject of series [3] is primary rod-like cells derived from the rd1 mutant mouse. As to the kind of experiment: Primary rod-like cells: cell death by Ethidium Homodimer assay. The settings on record: compared to Rp-8-Br-cGMPS and Rp-8-Br-PET-cGMPS; 0.1 μM and 1 μM, 24 hours (FIG. 2).
Protocol: Legend: Primary rod-like cells derived from the rd1 mutant mouse undergo spontaneous cell death 11 days after differentiation. Rod-like cells were exposed to compounds at day 10 of culture and analyzed 24 hours later. A.: 0.1 μM concentration of tested compounds. B.: 1 μM concentration of tested compounds. Percentage of dying cells was evaluated by Ethidium Homodimer assay. Untreated cells are shown as control sample (black bar). Reference compounds Rp-8-Br-cGMPS and Rp-8-Br-PET-cGMPS are shown as dashed bars. Data are shown as means±SD from at least three biological replicates.
Primary rod-like cells were obtained by isolating stem cells from the ciliary epithelium of murine eyes.^15 The cells are cultured until they form neurospheres in DMEM/F12 with FGF (20 ng/ml), Heparin (2 μg/ml), N2 (1x), Glucose (0.6%), HEPES (5 μM) and 1% Penicillin/Streptomycin. Single neurospheres are picked and plated onto glass slides coated with ECM in the same medium as before with the exception of reduced FGF concentration (10 ng/ml) to induce adhesion. […] To assess cell death, microphotographs were taken from three different slides for each compound concentration and the total number of cells, as well as the number of dying Ethidium Homodimer positive cells, were counted in each picture. […]

For `Nc1nc2c(nc(Sc3ccccc3N)n2[C@@H]2O[C@@H]3CO[P@@](=O)(S)O[C@H]3[C@H]2O)c(=O)[nH]1` (single isomer, unassigned) [Compound 30, 8-(2-Aminophenylthio)guanosine-3′,5′-cyclic monophosphorothioate, Rp-isomer], the “log k′g” value in series [1] is reported as 1.974. The same measure, in the same setting: under `O=c1c2nc(Br)n(C3OC4COP(O)(=S)OC4C3O)c2nc2[nH]c(-c3ccsc3)cn12` (centres unmarked) [Compound 23, 8-Bromo-(3-thiophen-yl-1, N^2-etheno)guanosine-3′, 5′-cyclic monophosphorothioate] stands 2.746; under `Nc1nc2c(nc(SCC(=O)Nc3ccccc3)n2[C@@H]2O[C@@H]3COP(O)(=S)O[C@H]3[C@H]2O)c(=O)[nH]1` (single isomer, unassigned) [Compound 31, 8-Phenylamidomethylthioguanosine-3′,5′-cyclic monophosphorothioate, Rp-isomer], 2.105. Same read-out and setting: under `O=c1c2nc(Br)n([C@@H]3O[C@@H]4CO[P@@](=O)(S)O[C@H]4[C@H]3O)c2nc2[nH]c(-c3ccc4ccccc4c3)cn12` (single isomer, unassigned) [Compound 24, 8-Bromo-(2-naphthyl-1,N^2-etheno)guanosine-3′,5′-cyclic monophosphorothioate, Rp-isomer] stands 3.426; under `Nc1nc2c(ncn2[C@@H]2O[C@@H]3COP(=O)(O)O[C@H]3[C@H]2O)c(=O)[nH]1` [cGMP, guanosine-3′,5′-cyclic monophosphate, reference compound], 0.77. `O=c1c2nc(Sc3ccc(O)cc3)n([C@@H]3O[C@@H]4COP(O)(=S)O[C@H]4[C@H]3O)c2nc2[nH]c(-c3ccccc3)cn12` (single isomer, unassigned) [Compound 34, 8-(4-Hydroxyphenylthio)-β-phenyl-1,N^2-ethenoguanosine-3′,5′-cyclic monophosphorothioate, Rp-isomer]: the “log k′g” value in series [1] amounted to 3.078.

Regarding `Nc1nc2c(nc(Br)n2[C@@H]2O[C@@H]3COP(O)(=S)O[C@H]3[C@H]2O)c(=O)[nH]1` (some centres unmarked) [B, Rp-8-Br-cGMPS, reference compound], the “log k′g” value in series [1] was found to be 1.285. With `O=c1c2nc(Br)n([C@@H]3O[C@@H]4CO[P@@](O)(=S)O[C@H]4[C@H]3O)c2nc2[nH]c(-c3ccccc3)cn12` [Rp-8-Br-PET-cGMPS], the “photoreceptor cell death, ratio of treated/untreated specimens” value in series [2] (PN5+2+4 paradigm, TUNEL stain, untreated = 1.0) is recorded as “about 0.78”. For the same molecule, the “reduction of photoreceptor cell death” value in series [2] (versus untreated) was “more than 20%”.

Take `O=C(CSc1nc2c(=O)n3cc(-c4ccccc4)[nH]c3nc2n1[C@@H]1O[C@@H]2COP(O)(=S)O[C@H]2[C@H]1O)NCCOCCOCCOCCOCCOCCOCCOCCOCCNC(=O)CSc1nc2c(=O)n3cc(-c4ccccc4)[nH]c3nc2n1[C@@H]1O[C@@H]2COP(O)(=S)O[C@H]2[C@H]1O` (stereo partly drawn) [Compound 2, β-Phenyl-1,N^2-ethenoguanosine-3′,5′-cyclic monophosphorothioate[Rp]-[8-thiomethylamido-(octaethoxy)-ethylamidomethylthio-8]-β-phenyl-1,N^2-ethenoguanosine-3′,5′-cyclic monophosphorothioate[Rp]]: in series [3], the “protective effect against cell death in primary rod-like cells” value is “significantly improved potencies to prevent cell death”. The “log k′g” value in series [1] was 3.236*.

Regarding `Nc1nc2c(ncn2[C@@H]2O[C@@H]3COP(O)(=S)O[C@H]3[C@H]2O)c(=O)[nH]1` (some centres unmarked) [A, Rp-cGMPS, reference compound], in series [1], the “log k′g” value was determined as 0.894. Turning to `O=C(CSc1nc2c(=O)n3cc(-c4ccccc4)[nH]c3nc2n1[C@@H]1O[C@@H]2COP(O)(=S)O[C@H]2[C@H]1O)Nc1ccccc1` (single isomer, unassigned) [Compound 33, β-Phenyl-1,N^2-etheno-8-phenylamidomethylthioguanosine-3′,5′-cyclic monophosphorothioate, Rp-isomer], in series [1], the “log k′g” value was found to be 3.411. On the same count and under the same terms, under `O=c1c2nc(Br)n([C@@H]3O[C@@H]4CO[P@@](O)(=S)O[C@H]4[C@H]3O)c2nc2[nH]c(-c3ccccc3)cn12` [C, Rp-8-Br-PET-cGMPS, reference compound] stands 2.831. For `Nc1nc2c(nc(SCC(=O)NCCOCCOCCOCCOCCOCCOCCOCCOCCNC(=O)CSc3nc4c(=O)[nH]c(N)nc4n3[C@@H]3O[C@@H]4COP(O)(=S)O[C@H]4[C@H]3O)n2[C@@H]2O[C@@H]3COP(O)(=S)O[C@H]3[C@H]2O)c(=O)[nH]1` (some centres unmarked) [Compound 1, Guanosine-3′,5′-cyclic monophosphorothioate[Rp]-[8-thiomethylamido-(octaethoxy)-ethylamidomethylthio-8]-guanosine-3′,5′-cyclic monophosphorothioate[Rp]], the “protective effect against cell death in primary rod-like cells” value in series [3] is reported as “significantly improved potencies to prevent cell death”. In addition, in series [1], the “log k′g” value is recorded as 2.039*. Take `Cc1ccc(-c2cn3c(=O)c4nc(Br)n([C@@H]5O[C@@H]6COP(O)(=S)O[C@H]6[C@H]5O)c4nc3[nH]2)cc1` (single isomer, unassigned) [Compound 22, 8-Bromo-(4-methyl-β-phenyl-1,N^2-etheno)guanosine-3′,5′-cyclic monophosphorothioate, Rp-isomer]: in series [1], the “log k′g” value is 3.134.
